Data published in PubChem BioAssay (NCI).
Several values for one entry are separate records, joined by “and”; a condition that tells them apart may be missing. Identical values can stand only once.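 Where inhibition never reached the appropriate level, the endpoint shown equals the highest concentration tested. Otherwise, values were interpolated linearly from a five-concentration, 48-hour dose response in 96-well plates. GI50: concentration for 50% inhibition of growth. Definition used: TGI = concentration required for complete inhibition of growth.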

What was measured:
Assay in all cases: NCI tumour cell line growth inhibition, 48 h
PC-3 prostate = tested on: PC-3 prostate
KM20L2 colon = tested on: KM20L2 colon
LOX IMVI melanoma = tested on: LOX IMVI melanoma
HOP-62 NSCLC = tested on: HOP-62 NSCLC
HOP-92 NSCLC = tested on: HOP-92 NSCLC
SN12C renal = tested on: SN12C renal
UO-31 renal = tested on: UO-31 renal
HCT-116 colon = tested on: HCT-116 colon
XF 498 CNS = tested on: XF 498 CNS
ACHN renal = tested on: ACHN renal
RXF 393 renal = tested on: RXF 393 renal
SK-MEL-28 melanoma = tested on: SK-MEL-28 melanoma
SF-539 CNS = tested on: SF-539 CNS
SF-295 CNS = tested on: SF-295 CNS
SF-268 CNS = tested on: SF-268 CNS
HT29 colon = tested on: HT29 colon
SK-OV-3 ovarian = tested on: SK-OV-3 ovarian
K-562 leukemia = tested on: K-562 leukemia
SW-620 colon = tested on: SW-620 colon
UACC-257 melanoma = tested on: UACC-257 melanoma
CCRF-CEM leukemia = tested on: CCRF-CEM leukemia
NCI-H460 lung = tested on: NCI-H460 lung
P388 leukemia = tested on: P388 leukemia
A549 NSCLC = tested on: A549 NSCLC
NCI/ADR-RES ovarian = tested on: NCI/ADR-RES ovarian
OVCAR-3 ovarian = tested on: OVCAR-3 ovarian
RPMI-8226 leukemia = tested on: RPMI-8226 leukemia
M19-MEL melanoma = tested on: M19-MEL melanoma
P388/ADR leukemia = tested on: P388/ADR leukemia
786-0 renal = tested on: 786-0 renal
OVCAR-5 ovarian = tested on: OVCAR-5 ovarian
SK-MEL-2 melanoma = tested on: SK-MEL-2 melanoma
SK-MEL-5 melanoma = tested on: SK-MEL-5 melanoma
TK-10 renal = tested on: TK-10 renal
U251 CNS = tested on: U251 CNS
COLO 205 colon = tested on: COLO 205 colon
M14 melanoma = tested on: M14 melanoma
HL-60(TB) leukemia = tested on: HL-60(TB) leukemia
DMS 273 small cell lung = tested on: DMS 273 small cell lung
UACC-62 melanoma = tested on: UACC-62 melanoma
NCI-H23 lung = tested on: NCI-H23 lung
SNB-75 CNS = tested on: SNB-75 CNS
HCT-15 colon = tested on: HCT-15 colon
HS 578T breast = tested on: HS 578T breast
MDA-MB-231 breast = tested on: MDA-MB-231 breast
KM12 colon = tested on: KM12 colon
BT-549 breast = tested on: BT-549 breast
HCC-2998 colon = tested on: HCC-2998 colon
DMS 114 small cell lung = tested on: DMS 114 small cell lung
CAKI-1 renal = tested on: CAKI-1 renal
MDA-MB-435 = tested on: MDA-MB-435
IGROV1 ovarian = tested on: IGROV1 ovarian
NCI-H226 lung = tested on: NCI-H226 lung
MCF7 breast = tested on: MCF7 breast

## C/C(=C\COc1ccc2ccc(=O)oc2c1)C1=CC(=O)C(C)(C)O1
PC-3 prostate
  TGI: 23.3 µM
KM20L2 colon
  TGI: 8.53 µM
LOX IMVI melanoma
  GI50: 2.2 µM
  TGI: 9.69 µM and 7.47 µM
HOP-62 NSCLC
  GI50: 6.12 µM
  TGI: 39.7 µM and 14.1 µM
HOP-92 NSCLC
  GI50: 2.38 µM
  TGI: 7.24 µM and 9.92 µM
SN12C renal
  GI50: 3.34 µM
  TGI: 14.1 µM and 10.8 µM
UO-31 renal
  GI50: 3.83 µM
  TGI: 14.7 µM and 14 µM
HCT-116 colon
  GI50: 2.84 µM
  TGI: 7.57 µM and 6.64 µM
XF 498 CNS
  TGI: 7.74 µM
ACHN renal
  TGI: 15.9 µM
RXF 393 renal
  GI50: 2.39 µM
  TGI: 12.2 µM and 5.61 µM
SK-MEL-28 melanoma
  GI50: 4.82 µM
  TGI: 18.3 µM and 10.1 µM
SF-539 CNS
  TGI: 4.88 µM and 8.64 µM
SF-295 CNS
  GI50: 4.3 µM
  TGI: 20.4 µM and 8.41 µM
SF-268 CNS
  GI50: 4.74 µM
  TGI: 14.9 µM and 14.3 µM
HT29 colon
  GI50: 3.55 µM
  TGI: 13.3 µM and 7.83 µM
SK-OV-3 ovarian
  GI50: 3.06 µM
  TGI: 8.72 µM and 34.1 µM
K-562 leukemia
  GI50: 1.85 µM
SW-620 colon
  GI50: 2.27 µM
  TGI: 5.58 µM and 14.7 µM
UACC-257 melanoma
  GI50: 7.22 µM
  TGI: 29.7 µM and 11.3 µM
CCRF-CEM leukemia
  GI50: 2.28 µM
  TGI: 7.11 µM and 21.4 µM
NCI-H460 lung
  GI50: 2.61 µM and 4.07 µM
  TGI: 6.29 µM and 11.5 µM
P388 leukemia
  TGI: 8.39 µM
A549 NSCLC
  GI50: 4.18 µM
  TGI: 47.2 µM and 51.9 µM
NCI/ADR-RES ovarian
  GI50: 3.81 µM
  TGI: > 100 µM and 35.6 µM
OVCAR-3 ovarian
  GI50: 2.44 µM
  TGI: 5.55 µM and 9.43 µM
RPMI-8226 leukemia
  TGI: 6.2 µM and 15.7 µM
M19-MEL melanoma
  TGI: 14.6 µM
P388/ADR leukemia
  TGI: 7.3 µM
786-0 renal
  TGI: 12.9 µM
OVCAR-5 ovarian
  GI50: 3.19 µM
  TGI: 10.8 µM and 20.9 µM
SK-MEL-2 melanoma
  GI50: 4.19 µM
  TGI: 23.2 µM and 15.1 µM
SK-MEL-5 melanoma
  GI50: 2.72 µM
  TGI: 13.3 µM and 6.95 µM
TK-10 renal
  TGI: 16.7 µM
U251 CNS
  GI50: 2.7 µM
  TGI: 10.1 µM and 8.61 µM
COLO 205 colon
  GI50: 2.73 µM
  TGI: 6.64 µM and 8.96 µM
M14 melanoma
  TGI: 16.3 µM
HL-60(TB) leukemia
  GI50: 1.76 µM
  TGI: 5.09 µM and 16.9 µM
DMS 273 small cell lung
  TGI: 27.9 µM
UACC-62 melanoma
  GI50: 2.3 µM
  TGI: 6.43 µM and 10.5 µM
NCI-H23 lung
  GI50: 2.79 µM
  TGI: 12.3 µM and 8.98 µM
SNB-75 CNS
  GI50: 3.55 µM
  TGI: 14.6 µM and 15.4 µM
HCT-15 colon
  TGI: 15.9 µM and 19.4 µM
HS 578T breast
  TGI: 7.3 µM
MDA-MB-231 breast
  TGI: 22.9 µM
KM12 colon
  GI50: 2.66 µM and 2.35 µM
  TGI: 9.77 µM and 8.59 µM
BT-549 breast
  TGI: 19.1 µM
HCC-2998 colon
  GI50: 2.85 µM
  TGI: 5.76 µM and 8.34 µM
DMS 114 small cell lung
  TGI: 9.44 µM
CAKI-1 renal
  GI50: 3.77 µM
  TGI: 14.6 µM and 19.8 µM
MDA-MB-435
  TGI: 13.2 µM
IGROV1 ovarian
  GI50: 2.73 µM
  TGI: 9.02 µM and 22.1 µM
NCI-H226 lung
  GI50: 2.64 µM
  TGI: 7.24 µM and 10.2 µM
MCF7 breast
  GI50: 2.35 µM and 1.09 µM
  TGI: 12.9 µM and 5.4 µM
